Measurements as given in article PMC9127750, “Structure-based design of CDC42 effector interaction inhibitors for the treatment of cancer” (Cell reports, 2022).

System: WM3248 melanoma cells, 486 antibodies
Assay: Reverse phase protein arrays (RPPA);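 for CA9.R.C RPPA level: ratio of treated to vehicle (0 µM) normalized linear protein signal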;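 for RPPA ACC1.R.C: ratio of treated to vehicle (0 µM) normalized linear protein signal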;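 for RPPA ASNS.R.V: ratio of treated to vehicle (0 µM) normalized linear protein signal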;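 for RPPA AceCS1.R.V: ratio of treated to vehicle (0 µM) normalized linear protein signal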;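 for RPPA Akt1.R.V: ratio of treated to vehicle (0 µM) normalized linear protein signal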;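 for RPPA Ambra1 pS52.R.C: ratio of treated to vehicle (0 µM) normalized linear protein signal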;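 for RPPA Atg5.R.C: ratio of treated to vehicle (0 µM) normalized linear protein signal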;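 for RPPA Bim.R.V: ratio of treated to vehicle (0 µM) normalized linear protein signal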
Assay type: cell-based, Human
Details: 5 uM
Description: Pellets were snap frozen in liquid nitrogen and shipped to MD Anderson Cancer Center core RPPA facility for RPPA analysis (Table S5). Three biological replicates for each sample were generated.
Nomenclatures on the RPPA heatmaps: name_of_antibody.species_of_antibody.status_of_antibody. V - antibody validated; C - validation of antibody in progress; Q - antibody nonspecific; E – under evaluation; antibodies raised in M - mouse, G - goat, R - rabbit, or T - rat.

## CN(C)c1cccc(Nc2cc(-c3ccccc3)nc(C3CCNCC3)n2)c1 [ARN22089, N1,N1-dimethyl-N3-(6-phenyl-2-(piperidin-4-yl)pyrimidin-4-yl)benzene-1,3-diamine]
5W3
  RPPA Akt_pT308.R.V: 0.946
  RPPA Ambra1_pS52.R.C: 0.917
  RPPA Annexin.I.M.V: 0.971
  RPPA Annexin.VII.M.V: 1.007
  RPPA Atg3.R.V: 1.133
  RPPA Atg4B.R.C: 1.148
  RPPA Atg5.R.C: 0.936
  RPPA Atg7.R.V: 1.164
  RPPA Aurora.A.R.C: 1.000
  RPPA Aurora.ABC_pT288_pT232_pT198.R.C: 0.878
  RPPA Aurora.B.R.V: 0.688
  RPPA Axl.R.V: 1.276
  RPPA B7.H4.R.C: 1.076
  RPPA B.Raf_pS445.R.V: 1.159
  RPPA BAP1.M.V: 0.823
  RPPA BCL2A1.R.V: 0.750
  RPPA BMK1.Erk5_pT218_Y220.R.V: 1.014
  RPPA BRCA1.M.C: 0.946
  RPPA BRD4.R.V: 1.138
  RPPA Bad_pS112.R.V: 1.056
  RPPA Bak.R.C: 1.134
  RPPA Bax.R.V: 0.916
  RPPA Bcl2.R.C: 0.798
  RPPA Bcl.xL.R.V: 0.681
  RPPA Beclin.R.C: 0.789
  RPPA Bid.R.C: 1.142
  RPPA Bim.R.V: 0.991
  RPPA X4E.BP1.R.V: 1.157
  RPPA X4E.BP1_pT37_T46.R.V: 0.968
  RPPA X14.3.3.zeta.R.V: 0.946
  RPPA X14.3.3βR.V: 1.033
  RPPA X14.3.3εM.C: 0.879
  RPPA X53BP1.R.V: 0.922
  RPPA b.Catenin.R.V: 0.837
  RPPA b.Catenin_pT41_S45.R.V: 0.998
  RPPA c.Abl.R.V: 1.059
  RPPA c.Abl_pY412.R.C: 1.150
  RPPA c.IAP2.R.C: 1.026
Average
  C.Raf.R.C RPPA level: 1.065
  C.Raf_pS338.R.V RPPA level: 1.113
  CA9.R.C RPPA level: 0.982
  CD2.M.C RPPA level: 1.031
  CD4.R.V RPPA level: 1.062
  CD5.M.C RPPA level: 1.017
  CD20.R.C RPPA level: 0.788
  CD26.R.V RPPA level: 0.939
  CD29.M.V RPPA level: 1.028
  CD31.M.V RPPA level: 1.028
  CD44.R.C RPPA level: 0.921
  CD45.M.V RPPA level: 1.027
  CD49b.M.V RPPA level: 0.960
  CD68.M.C RPPA level: 1.012
  CD74.M.V RPPA level: 0.998
  CD134.R.V RPPA level: 1.020
  CD171.M.V RPPA level: 0.844
  CDK1_pT14.R.C RPPA level: 1.060
  CDK9.R.V RPPA level: 0.980
  CDT1.R.V RPPA level: 1.028
  CENP.A.R.V RPPA level: 0.953
  CHD1L.R.V RPPA level: 1.018
  CIITA.R.C RPPA level: 0.895
  COG3.R.V RPPA level: 1.097
  CRABP1.R.C RPPA level: 1.004
  CRABP2.R.V RPPA level: 1.035
  CREB_pS133.R.C RPPA level: 1.124
  CSK.R.C RPPA level: 0.918
  Calnexin.R.V RPPA level: 0.992
  Caspase.7.cleaved..R.C RPPA level: 1.029
  Caspase.8.M.Q RPPA level: 0.956
  Caspase.8.cleaved.R.C RPPA level: 1.054
  Cdc6.R.V RPPA level: 0.980
  Cdc42.R.C RPPA level: 1.028
  Chk1_pS296.R.V RPPA level: 1.083
  Chk1_pS345.R.C RPPA level: 0.981
  Chk2.M.V RPPA level: 0.925
  Chk2_pT68.R.C RPPA level: 1.151
  Claudin.7.R.V RPPA level: 0.907
  Collagen.VI.R.V RPPA level: 1.059
  Complex.II.Subunit.M.V RPPA level: 0.933
  Connexin.43.R.C RPPA level: 1.140
  Coup.TFII.R.C RPPA level: 1.033
  Cox2.R.C RPPA level: 1.057
  Cox.IV.R.V RPPA level: 1.028
  Creb.R.C RPPA level: 1.080
  CtIP.R.V RPPA level: 0.961
  Cyclin.B1.R.V RPPA level: 1.030
  Cyclin.D1.R.C RPPA level: 1.001
  Cyclin.D3.M.V RPPA level: 1.046
  Cyclin.E1.R.V RPPA level: 0.995
  Cyclophilin.F.M.V RPPA level: 0.908
  D.a.Tubulin.R.V RPPA level: 1.114
  DAPK1_pS308.M.C RPPA level: 0.822
  DDB.1.R.V RPPA level: 1.124
  DDR1.R.V RPPA level: 0.952
  DDR1_pY513.R.C RPPA level: 1.021
  DJ1.R.V RPPA level: 1.059
  DM.K9.Histone.H3.M.V RPPA level: 0.994
  DNA.Ligase.IV.R.C RPPA level: 1.104
  DNA_POLG.R.V RPPA level: 0.927
  RPPA A.Raf.R.V: 1.059
  RPPA A.Raf_pS299.R.C: 0.992
  RPPA ACC1.R.C: 1.065
  RPPA ACC_pS79.R.V: 0.961
  RPPA ACLY_pS455.R.V: 0.986
  RPPA ACSL1.R.V: 0.842
  RPPA ACVRL1.R.C: 0.970
  RPPA ADAR1.M.V: 1.014
  RPPA ALKBH5.R.V: 0.919
  RPPA AMPK.a2_pS345.R.V: 1.081
  RPPA AMPKa.R.C: 1.048
  RPPA AMPKa_pT172.R.C: 1.331
  RPPA AR.R.V: 1.032
  RPPA ARID1A.R.C: 1.009
  RPPA ASNS.R.V: 1.062
  RPPA ATM.R.V: 1.153
  RPPA ATM_pS1981.R.V: 0.964
  RPPA ATP5A.M.C: 0.801
  RPPA ATP5H.R.V: 0.961
  RPPA ATR.R.V: 0.966
  RPPA ATRX.R.C: 1.030
  RPPA ATR_pS428.R.C: 1.061
  RPPA AceCS1.R.V: 0.899
  RPPA Akt1.R.V: 0.928
  RPPA Akt1_pS473.R.V: 1.048
  RPPA Akt2.R.V: 1.002
  RPPA Akt2_pS474.R.C: 1.185
  RPPA Akt.R.V: 1.002
  RPPA Akt_pS473.R.V: 1.132
  RPPA Akt_pT308.R.V: 0.940
  RPPA Ambra1_pS52.R.C: 0.946
  RPPA Annexin.I.M.V: 1.026
  RPPA Annexin.VII.M.V: 0.993
  RPPA Atg3.R.V: 1.035
  RPPA Atg5.R.C: 0.970
  RPPA Atg7.R.V: 0.970
  RPPA Aurora.A.R.C: 0.940
  RPPA Aurora.ABC_pT288_pT232_pT198.R.C: 0.876
  RPPA Aurora.B.R.V: 0.890
  RPPA Axl.R.V: 1.076
  RPPA B7.H3.R.C: 1.022
  RPPA B7.H4.R.C: 1.046
  RPPA B.Raf.R.C: 1.049
  RPPA BAP1.M.V: 0.921
  RPPA BCL2A1.R.V: 0.906
  RPPA BMK1.Erk5_pT218_Y220.R.V: 0.997
  RPPA Bad_pS112.R.V: 1.055
  RPPA Bax.R.V: 0.956
  RPPA Bcl2.R.C: 0.897
  RPPA Bcl.xL.R.V: 0.932
  RPPA Beclin.R.C: 0.921
  RPPA BiP.GRP78.M.C: 0.957
  RPPA Bid.R.C: 1.077
  RPPA Bim.R.V: 0.984
  RPPA DNMT1.R.V: 0.995
  RPPA DRP1.R.V: 1.010
  RPPA DUSP4.R.V: 1.114
  RPPA DYRK1B.R.C: 1.013
  RPPA Dvl3.R.V: 1.014
  RPPA E2F1.R.V: 0.961
  RPPA E.Cadherin.R.V: 0.957
  RPPA EGFR.R.V: 0.980
  RPPA EGFR_pY1068.R.C: 0.993
  RPPA EGFR_pY1173.R.V: 1.046
